# Like-named read-outs stand apart in the source and are kept apart here.
# What was measured:
# [1] = Dynamic vapor sorption (DVS) mass change; format: physicochemical; settings: for Mass change by DVS, Desorption (%) / Mass change by DVS, Sorption (%): Table 5, 25 degree C., based on dry weight
# Excerpt: [table] The mass change by DVS isotherm (2 cycles 40-0-95-0-40% RH) are in the tables below. The mass change is based on the dry weight of each.
# [2] = Intrinsic dissolution rate; format: physicochemical
# [3] = Water content by Karl Fischer titration; format: physicochemical; settings: ambient conditions; relative to total weight of the salt / free form
# [4] = Solubility in Simulated Fluids at 37° C.; format: physicochemical; settings: for solubility at 30 min / solubility at 24 h: 37 °C, thermodynamic from solid; for solubility at 30 min: read-out: Solubility (mg/mL) 30 min; for solubility at 24 h: read-out: Solubility (mg/mL) 24 h
# Excerpt: Solubility data of Form A (S)-4-(2,2-difluoro-7-((5-methoxy-7-methyl-1H-indol-4-yl)methyl)-7-azaspiro[3.5]nonan-6-yl)benzoic acid, Form B (S)-4-(2,2-difluoro-7-((5-methoxy-7-methyl-1H-indol-4-yl)methyl)-7-azaspiro[3.5]nonan-6-yl)benzoic acid p-toluene sulfonic acid salt, Form C (S)-4-(2,2-difluoro-7-((5-methoxy-7-methyl-1H-indol-4-yl)methyl)-7-azaspiro[3.5]nonan-6-yl)benzoic acid p-toluene sulfonic acid salt, and Form D (S)-4-(2,2-difluoro-7-((5-methoxy-7-methyl-1H-indol-4-yl)methyl)-7-azaspiro[3.5]nonan-6-yl)benzoic acid hydrochloride salt in Simulated Fluids at 37° C.
# [5] = Stability of Forms A and B under stress conditions (temperature/humidity, capsules, light)
# [6] = Grinding and wet granulation; format: physicochemical
# Excerpt: Method: Granulate was obtained in solid-state forms. […] Dry the wet-cake under vacuum or at atmospheric pressure. Evaluate solid form and degree of crystallinity by e.g. XRPD and/or DSC.
# [7] = Solubility in water and biorelevant buffers at 25° C.; format: physicochemical; settings: 25° C., 24 h; for solubility at 24 h: thermodynamic from solid, read-out: Solubility (mg/mL) S
# Procedure: Purchase sodium taurocholate (NaTC) from supplier. Account for assay. Add amount corresponding to 3 mM to PBS V1. Stir until dissolved. Equilibrate 1 h at 25° C. or 37° C. before use. Dispose after 48 h.
# Purchase FaSSIF-V2 from supplier (biorelevant.com). Amount added to PBS-V1 according to Table 1. Stir until dissolved. Equilibrate 1 h at 25° C. or 37° C. before use. Dispose after 48 h.
# Purchase FeSSIF-V2 from supplier (biorelevant.com). Amount added to PBS-V1 according to Table 1. Stir until dissolved. Equilibrate 1 h at 25° C. or 37° C. before use. Dispose after 48 h.
# [8] = Compression stability (XRPD after compression); format: physicochemical; settings: 4 tons of compression for 5 min
# Excerpt: Method: […] Afterwards, characterize the sample by XRPD to detect any change in the solid state.
# [9] = pH 2.0, 0.01 M HCl, 37° C., 100 rpm, 120 min
# [10] = pH 6.5, phosphate buffer 50 mM (PBS-V1), 37° C., 100 rpm, 120 min
structure (smiles),measurement,setting,value
"COc1cc(C)c2[nH]ccc2c1CN1CCC2(C[C@H]1c1ccc(C(=O)O)cc1)CC(F)(F)C2 [Form A, (S)-4-(2,2-difluoro-7-((5-methoxy-7-methyl-1H-indol-4-yl)methyl)-7-azaspiro[3.5]nonan-6-yl)benzoic acid]",moisture absorbed by DVS (absorbs up to),[1]; 95% RH at 25° C.,up to 0.45%
same,"Mass change by DVS, Desorption (%)",[1]; 0% RH,−0.01%
same,"Mass change by DVS, Sorption (%)",[1]; 0% RH,0.00%
same,"Mass change by DVS, Desorption (%)",[1]; 10% RH,0.06%
same,"Mass change by DVS, Sorption (%)",[1]; 10% RH,0.04%
same,"Mass change by DVS, Desorption (%)",[1]; 20% RH,0.12%
same,"Mass change by DVS, Sorption (%)",[1]; 20% RH,0.08%
same,"Mass change by DVS, Desorption (%)",[1]; 30% RH,0.17%
same,"Mass change by DVS, Sorption (%)",[1]; 30% RH,0.13%
same,"Mass change by DVS, Desorption (%)",[1]; 40% RH,0.22%
same,"Mass change by DVS, Sorption (%)",[1]; 40% RH,0.17%
same,"Mass change by DVS, Desorption (%)",[1]; 50% RH,0.26%
same,"Mass change by DVS, Sorption (%)",[1]; 50% RH,0.22%
same,"Mass change by DVS, Desorption (%)",[1]; 60% RH,0.32%
same,"Mass change by DVS, Sorption (%)",[1]; 60% RH,0.26%
same,"Mass change by DVS, Desorption (%)",[1]; 70% RH,0.35%
same,"Mass change by DVS, Sorption (%)",[1]; 70% RH,0.30%
same,"Mass change by DVS, Desorption (%)",[1]; 80% RH,0.38%
same,"Mass change by DVS, Sorption (%)",[1]; 80% RH,0.35%
same,"Mass change by DVS, Desorption (%)",[1]; 90% RH,0.42%
same,"Mass change by DVS, Sorption (%)",[1]; 90% RH,0.40%
same,"Mass change by DVS, Desorption (%)",[1]; 95% RH,0.45%
same,"Mass change by DVS, Sorption (%)",[1]; 95% RH,0.45%
same,intrinsic dissolution rate,[2]; PBS-V1 (pH 6.5),0.0028 mg/min/cm^2
same,intrinsic dissolution rate,"[2]; pH 2.0, 0.01 M HCl",0.081 mg/min/cm^2
same,form change after intrinsic dissolution,[2]; [9],(No form change)
same,intrinsic dissolution rate,[2]; [9],0.081 mg · min^−1 · cm^−2
same,form change after intrinsic dissolution,[2]; [10],(No form change)
same,intrinsic dissolution rate,[2]; [10],0.0028 mg · min^−1 · cm^−2
same,water content by Karl Fischer titration,[3],0.15 % w/w
same,solubility at 30 min,"[4]; fassgf or other biorelevant, FaSSGF, 30 min",2.28 mg/mL
same,solubility at 24 h,"[4]; fassgf or other biorelevant, FaSSGF, 24 h",> 2 mg/mL
same,solubility at 30 min,"[4]; fassif, FaSSIF, 30 min",0.24 mg/mL
same,solubility at 24 h,"[4]; fassif, FaSSIF, 24 h",0.18 mg/mL
same,solubility at 30 min,"[4]; fessif, FeSSIF, 30 min",0.31 mg/mL
same,solubility at 24 h,"[4]; fessif, FeSSIF, 24 h",0.31 mg/mL
same,solubility at 30 min,"[4]; pH 7, water, Water, initial pH 7.00, 30 min",0.21 mg/mL
same,solubility at 24 h,"[4]; pH 7, water, Water, initial pH 7.00, 24 h",0.22 mg/mL
same,pH at 24 h,[4]; FaSSGF,1.61
same,pH at 24 h,[4]; FaSSIF,6.48
same,pH at 24 h,[4]; FeSSIF,5.00
same,pH at 24 h,"[4]; Water, initial pH 7.00",7.12
same,stability in HPMC and HGC capsules,[5]; 50° C. with 11% and 75% RH for 2 weeks,chemically and physically stable
same,degradation under light stress,[5]; 1200 kLux light stress,about 0.9%
same,form change by XRPD after humidity exposure,[5]; exposed to 80% or 92% RH for 24 hrs,no change
same,chemical stability in bulk state,[5]; stored at 50° C. with 11% RH or 75% RH for 1 week,chemically stable
same,discoloration in bulk state,[5]; stored at 80° C. with 11% RH or 75% RH,slight to medium discoloration
same,polymorphic form in the stress conditions,[5]; temperature/humidity and light stress conditions,unchanged
same,crystallinity from XRPD pattern after grinding,[6]; after grinding,crystallinity decrease
same,form change after grinding and wet granulation,[6]; dry grinding (2 min and 5 min) and wet granulation (water and ethanol),did not lead to any form change
same,pH of solubility sample (pH),"[7]; FaSSGF, pH 1.6",1.68
same,pH of solubility sample (pH),"[7]; PBS-V1 + 3 mM NaTC, pH 6.5",6.51
same,pH of solubility sample (pH),"[7]; PBS-V1 + 0.3 FeSSIF-V2, pH 6.5",6.52
same,pH of solubility sample (pH),"[7]; PBS-V1 + 2.0 FeSSIF-V2, pH 6.5",6.73
same,pH of solubility sample (pH),"[7]; PBS-V1 + FaSSIF-V2, pH 6.5",6.69
same,pH of solubility sample (pH),"[7]; PBS-V1 + FeSSIF-V2, pH 6.5",6.74
same,solubility at 24 h,"[7]; fassgf or other biorelevant, FaSSGF, pH 1.6",> 2 mg/mL
same,solubility at 24 h,"[7]; fassgf or other biorelevant, PBS-V1 + 3 mM NaTC, pH 6.5",0.068 mg/mL
same,solubility at 24 h,"[7]; fassgf or other biorelevant, PBS-V1 + 0.3 FeSSIF-V2, pH 6.5",0.074 mg/mL
same,solubility at 24 h,"[7]; fassgf or other biorelevant, PBS-V1 + 2.0 FeSSIF-V2, pH 6.5",0.12 mg/mL
same,solubility at 24 h,"[7]; PBS-V1 + FaSSIF-V2, pH 6.5",0.072 mg/mL
same,solubility at 24 h,"[7]; PBS-V1 + FeSSIF-V2, pH 6.5",0.094 mg/mL
same,solubility at 24 h,[7]; water,0.052 mg/mL
same,pH of solubility sample (pH),[7]; water,7.40
same,form change in XRPD after compression,[8],no form change
